Source: patent US20080280860A1, “Use of Vitamin D Compounds to Treat Endometriosis” (BioXell S.p.A., priority 2005, published 2008)

Columns and labels:
[1] = test system: endometriotic lesions; assay: In vivo model of endometriosis (lesion weight); parameters: species or system Balb/c mice; settings: Example 2; each compound at its maximum tolerated level, ip once a day, 5 days a week for two weeks
Experimental: Balb/c donor mice were injected with estrogen (Estradiol AMSA; 3 ug/mouse) and one week later were sacrificed and the uterus was removed, the two horns isolated and reduced to small fragments. The fragments derived from the isolated uterine horns were resuspended in saline with ampicillin (1 mg/ml) and then injected into the peritoneum of two recipient Balb/c mice, previously anesthesized, through a 0.5 cm incision in the abdominal wall. […] Antibiotic (ampicillin 1 mg/ml) was administered on the day of the surgery and on the day after. […] […] Lesions can be identified as translucid isolated or grouped cysts mainly found on the abdominal wall, on the pancreas, and around the uterus. In some cases the lesions are necrotic. The lesions were carefully removed and put on a glass slide to dry for 48 hours, and then were weighed. In other experiments lesions are transferred to a lysis solution and mRNA isolated for gene expression analysis. For immunohistochemical analysis, lesions were frozen immediately after isolation.
Balb/c donor mice were injected with estrogen (Estradiol AMSA; 3 ug/mouse) and one week later were sacrificed and the uterus was removed, the two horns isolated and reduced to small fragments. The fragments derived from the isolated uterine horns were resuspended in saline with ampicillin (1 mg/ml) and then injected into the peritoneum of two recipient Balb/c mice, previously anesthetised, through a 0.5 cm incision in the abdominal wall. Antibiotic (ampicillin 1 mg/ml) was administered on the day of the surgery and on the day after. […] Dosage levels of the test compounds were at the maximum tolerated levels for the compound in question, i.e. 1-alpha-fluoro-25-hydroxy-16,23E-diene-26,27-bishomo-20-epi-cholecalciferol (Compound A) 100 ug/kg, calcitriol (Compound B) 0.3 ug/kg and 1,25-dihydroxy-21-(3-hydroxy-3-methylbutyl)-19-nor-cholecalciferol (Compound C) 3 ug/kg.
(§1) […] Lesions can be identified as translucid isolated or grouped cysts mainly found on the abdominal wall, on the pancreas, and around the uterus. In some cases the lesions are necrotic. The lesions were carefully removed and put on a glass slide to dry for 48 hours, and then were weighed.
Balb/c donor mice were injected with estrogen (Estradiol AMSA; 3 ug/mouse) and one week later were sacrificed and the uterus was removed, the two horns isolated and reduced to small fragments. The fragments derived from the isolated uterine horns were resuspended in saline with ampicillin (1 mg/ml) and then injected into the peritoneum of recipient Balb/c mice, previously anesthetised, through a 0.5 cm incision in the abdominal wall. Antibiotic (ampicillin 1 mg/ml) was administered on the day of the surgery and on the day after. […]
as §1, with “weighed. At least 10 test animals were used in each group.” for “weighed.”
Further experiments were performed using Compound A at 100 ug/kg but varying the time at which administration of the vitamin D compound was initiated and the time point at which administration was ceased. Specifically: (i) administration for 1 week prior to injection of the uterine fragments (ii) administration for 2 weeks subsequent to injection of the uterine fragments (iii) administration for 1 week prior and 2 weeks subsequent to injection of the uterine fragments (iv) administration for 2 weeks, initiated two days subsequent to injection of the uterine fragments (v) administration for 2 weeks, initiated two weeks subsequent to injection of the uterine fragments. In these experiments, subjects were sacrificed at the later of two weeks post injection or the end of the treatment period as appropriate.

[2] = Maximum tolerated dose; format: in vivo, Balb/c mice; settings: Balb/c, mouse, in vivo; mice, ip; above it the compound becomes hypercalcemic

Compound	lesion weight, treated versus control (vehicle only), statistical analysis [1]	MTD [2] [µg/kg]
C=C1/C(=C\C=C2/CCC[C@]3(C)[C@@H]([C@H](C)CCCC(C)(C)O)CC[C@@H]23)C[C@@H](O)C[C@@H]1O [Compound B, calcitriol, reference compound]	significant reduction in lesion weight	0.3
CC(C)(O)CCCC(CCCC(C)(C)O)[C@H]1CC[C@H]2/C(=C/C=C3C[C@@H](O)C[C@H](O)C3)CCC[C@]12C [Compound C, 1,25-dihydroxy-21-(3-hydroxy-3-methylbutyl)-19-nor-cholecalciferol]	no significant reduction in lesion weight	3
